# According to article PMC3053401, “Renal Effects of the Novel Selective Adenosine A1 Receptor Blocker SLV329 in Experimental Liver Cirrhosis in Rats” (PLoS ONE, 2011):
# Legend:
# [1] = molecular target: T1, Adenosine A1 receptor (A1R) (Homo sapiens, UniProt P30542); assay: radioligand displacement, filtration, Cheng-Prusoff; type: binding; conditions: [3H]DPCPX; receptor preparation from CHO cells; antagonist
# T1 construct: gene ADORA1; cloned human receptor in CHO cells; cells provided by Cerep
# T1 sequence (P30542 1-326): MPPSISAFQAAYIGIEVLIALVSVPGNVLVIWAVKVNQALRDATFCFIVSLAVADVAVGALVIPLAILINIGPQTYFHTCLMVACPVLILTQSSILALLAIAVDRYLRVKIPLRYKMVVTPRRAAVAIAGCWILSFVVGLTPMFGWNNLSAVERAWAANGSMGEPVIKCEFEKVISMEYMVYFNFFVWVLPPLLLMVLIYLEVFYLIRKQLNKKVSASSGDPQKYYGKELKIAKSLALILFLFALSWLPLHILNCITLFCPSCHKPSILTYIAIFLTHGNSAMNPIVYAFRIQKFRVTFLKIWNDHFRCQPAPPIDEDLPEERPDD
# Description: radioligand displacement, filtration, Cheng-Prusoff on Adenosine A1 receptor (A1R)
# Adenosine A3 receptor = molecular target: T2, Adenosine A3 receptor (Homo sapiens, UniProt P0DMS8); assay: as above; type: binding; conditions: [3H]AB-MECA; receptor preparation from HEK293 cells
# T2 construct: gene ADORA3; cloned human receptor in HEK293 cells; cells provided by Cerep
# T2 sequence (P0DMS8 1-318): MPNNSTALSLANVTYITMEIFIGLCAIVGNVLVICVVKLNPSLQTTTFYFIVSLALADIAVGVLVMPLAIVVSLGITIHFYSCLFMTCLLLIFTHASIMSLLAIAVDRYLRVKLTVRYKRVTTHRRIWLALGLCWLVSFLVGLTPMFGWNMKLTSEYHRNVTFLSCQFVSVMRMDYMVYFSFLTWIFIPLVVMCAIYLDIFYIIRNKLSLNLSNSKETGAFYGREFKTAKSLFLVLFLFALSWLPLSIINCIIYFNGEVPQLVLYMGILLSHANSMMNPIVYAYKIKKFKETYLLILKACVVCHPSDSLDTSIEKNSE
# Description: radioligand displacement, filtration, Cheng-Prusoff on Adenosine A3 receptor
# Adenosine A2B receptor = molecular target: T3, Adenosine A2B receptor (Homo sapiens, UniProt P29275); assay: as above; type: binding; conditions: [3H]DPCPX; receptor preparation from HEK293 cells
# T3 construct: gene ADORA2B; cloned human receptor in HEK293 cells; cells provided by Cerep
# T3 sequence (P29275 1-332): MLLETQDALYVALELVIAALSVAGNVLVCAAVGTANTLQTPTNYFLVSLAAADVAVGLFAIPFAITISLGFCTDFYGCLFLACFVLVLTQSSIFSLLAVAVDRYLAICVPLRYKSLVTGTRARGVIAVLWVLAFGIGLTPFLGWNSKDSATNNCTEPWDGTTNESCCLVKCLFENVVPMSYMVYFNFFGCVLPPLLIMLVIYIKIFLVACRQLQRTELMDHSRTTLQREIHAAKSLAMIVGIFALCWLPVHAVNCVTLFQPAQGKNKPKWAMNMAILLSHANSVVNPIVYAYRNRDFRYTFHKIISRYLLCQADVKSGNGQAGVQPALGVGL
# Description: radioligand displacement, filtration, Cheng-Prusoff on Adenosine A2B receptor
# [2] = molecular target: T4, Phosphodiesterase 4 enzyme; assay: radiometric enzyme inhibition assay, scintillation counting; type: biochemical; conditions: [3H]cAMP substrate; enzyme preparation from U-937 cells
# T4 construct: gene PDE4A; native enzyme preparation from U-937 cells; provided by Cerep
# Description: radiometric enzyme inhibition assay, scintillation counting on Phosphodiesterase 4 enzyme
# [3] = molecular target: T5, Phosphodiesterase 4 rolipram binding; assay: radioligand displacement, filtration, Cheng-Prusoff; conditions: [3H]rolipram; total brain; high-affinity rolipram-binding site
# T5 construct: gene Pde4a; provided by Cerep
# Description: radioligand displacement, filtration, Cheng-Prusoff on Phosphodiesterase 4 rolipram binding
# Adenosine A2A receptor = molecular target: T6, Adenosine A2A receptor (Homo sapiens, UniProt P29274); assay: as above; type: binding; conditions: [3H]CGS21680; receptor preparation from HEK293 cells
# T6 construct: gene ADORA2A; cloned human receptor in HEK293 cells; cells provided by Cerep
# Description: radioligand displacement, filtration, Cheng-Prusoff on Adenosine A2A receptor
# T6 sequence (P29274 whole entry): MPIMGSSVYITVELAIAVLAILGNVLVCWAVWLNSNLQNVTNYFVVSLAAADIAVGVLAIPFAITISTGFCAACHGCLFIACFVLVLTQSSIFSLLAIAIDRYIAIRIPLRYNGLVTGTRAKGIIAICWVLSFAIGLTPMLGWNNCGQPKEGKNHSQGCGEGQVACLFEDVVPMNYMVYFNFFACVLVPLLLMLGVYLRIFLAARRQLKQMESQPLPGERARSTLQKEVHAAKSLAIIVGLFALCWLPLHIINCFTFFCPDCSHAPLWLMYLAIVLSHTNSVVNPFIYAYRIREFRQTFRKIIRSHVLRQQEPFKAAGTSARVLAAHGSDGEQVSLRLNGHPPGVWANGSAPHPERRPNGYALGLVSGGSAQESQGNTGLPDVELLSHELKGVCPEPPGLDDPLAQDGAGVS
substance,measurement,setting,value
SLV329,SLV329 Affinity,[1],9.2±0.2
same,SLV329 Affinity,Adenosine A3 receptor,6.9±0.1
same,SLV329 Affinity,Adenosine A2B receptor,6.3±0.1
same,SLV329 Affinity,[2],5.4±0.1
same,SLV329 Affinity,[3],6.1±0.2
same,SLV329 Affinity,Adenosine A2A receptor,7.2±0.2
